Measured values as given in BindingDB's records for patent US11752155 (Rugen Holdings (Cayman), 2023).

Target: hERG (Potassium voltage-gated channel subfamily H member 2) (Homo sapiens, UniProt Q12809)
Test: hERG Channel Inhibition
Conditions: HEK293 cells stably expressing hERG channel, pH 7.35
Protocol: The assay was performed on hERG channel stably expressed in HEK293 cells. The cells were cultured at 37° C. in a humidified CO2 incubator in the growth medium consisting of DMEM, 10% fetal bovine serum and antibiotics. Prior to the assay, the cells were seeded onto a 12-mm PDL-coated glass coverslip and cultured in a 35-mm Petri dish. […] Giga-seal was maintained during the test. […] Whole-cell hERG currents were recorded following the Petroski protocol: the cell was held at −80 mV, and the voltage step jumped from −80 to 30 mV and stay for 2 seconds with a 20-millisecond prepulse at −40 mV. After depolarization, the voltage was decreased to −40 mV and stay for 2 seconds, and returned back to −80 mV. Test compound was applied by quartz capillary tubes tip (200 m inner diameter), and the flow rate was controlled at 2-3 mL/min with OctaFlow perfusion system. Different concentrations of the compound were applied to the cells for 5 minutes and the hERG current was measured three times before, during and after compound treatment. The data were analyzed using Clampfit 10 software (Molecular Devices) to generate IC50 values.

Chain of hERG (Potassium voltage-gated channel subfamily H member 2) (Q12809 whole entry): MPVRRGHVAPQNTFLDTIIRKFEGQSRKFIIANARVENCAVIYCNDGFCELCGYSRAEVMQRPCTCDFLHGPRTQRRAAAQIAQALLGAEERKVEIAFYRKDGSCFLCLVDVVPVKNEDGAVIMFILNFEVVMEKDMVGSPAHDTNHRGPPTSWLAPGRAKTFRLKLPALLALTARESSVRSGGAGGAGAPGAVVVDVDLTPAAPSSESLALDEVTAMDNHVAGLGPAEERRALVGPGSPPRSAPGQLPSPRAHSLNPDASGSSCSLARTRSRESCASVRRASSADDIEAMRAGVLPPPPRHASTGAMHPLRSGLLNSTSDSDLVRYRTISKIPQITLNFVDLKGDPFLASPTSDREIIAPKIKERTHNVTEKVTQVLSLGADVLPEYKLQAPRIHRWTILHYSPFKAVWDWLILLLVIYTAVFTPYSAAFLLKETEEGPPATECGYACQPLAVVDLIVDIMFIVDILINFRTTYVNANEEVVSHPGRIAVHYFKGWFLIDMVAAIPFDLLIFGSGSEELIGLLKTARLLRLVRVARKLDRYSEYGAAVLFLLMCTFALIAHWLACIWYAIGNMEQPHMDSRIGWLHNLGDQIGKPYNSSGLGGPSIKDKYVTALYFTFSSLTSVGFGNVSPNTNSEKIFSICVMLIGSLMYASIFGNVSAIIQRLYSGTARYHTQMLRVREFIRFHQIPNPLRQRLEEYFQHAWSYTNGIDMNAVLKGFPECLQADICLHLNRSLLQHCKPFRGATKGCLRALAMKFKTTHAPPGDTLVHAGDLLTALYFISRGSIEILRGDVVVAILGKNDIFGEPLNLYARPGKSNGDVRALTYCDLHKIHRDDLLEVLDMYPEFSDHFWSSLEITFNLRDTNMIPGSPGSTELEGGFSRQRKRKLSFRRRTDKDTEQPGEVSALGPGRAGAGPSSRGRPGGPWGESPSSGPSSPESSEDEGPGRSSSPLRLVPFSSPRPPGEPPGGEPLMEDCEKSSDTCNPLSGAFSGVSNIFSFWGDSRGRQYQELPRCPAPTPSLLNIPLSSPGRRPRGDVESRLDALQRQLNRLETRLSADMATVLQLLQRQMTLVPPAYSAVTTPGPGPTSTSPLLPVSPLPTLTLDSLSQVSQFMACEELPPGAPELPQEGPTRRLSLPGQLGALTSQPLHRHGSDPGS

## FC(F)(F)Oc1ccc(C(F)(F)CN2CCC(Nc3ncnc4[nH]ccc34)CC2)nc1 [US11752155, Compound C-11A']
  IC50 at 5 min: 3.8 µM
